Test results: patent US4788181A, “5-substituted-2',3'-dideoxycytidine compounds with anti-HTLV-III activity” (priority 1986, dated 1988)
Entries after “also recorded” stand apart in the source; their conditions may differ. Like-named read-outs stand apart in the source and are kept apart here.

Tests used:
HTLV-III/LAV [1] = details: cited from earlier work
HTLV-III/LAV [2] = details: in vitro, cited from earlier work
T4^+ lymphocytes = details: 0.5 and 5.0 micromoles; cited from earlier work
[3] = Penetration of the blood-brain barrier / entry into the central nervous system
[4] = Cytotoxicity to ATH8 cells cultured with the nucleoside (trypan blue viable cell count); format: cell-based; details: human
Procedure: (§1) ^b The percentage of cytotoxicity was determined by the following
(§2) 100 × [1 - (number of viable cells cultured in the presence of the
(§3) nucleoside)/(number of viable cells cultured alone)].
(§4) HTLV-III/LAV cytopathic effect assay was performed using ATH8 cells as previously described.* Briefly, 2×10^5 ATH8 cells were exposed to HTLV-IIIB virus (2,000 virus particles/cell) for 45 min after treatment with polybrene, resuspended in 2 ml of culture medium containing interleukin 2 in the presence or absence of various concentrations of compounds, and incubated in culture tubes at 37° C. in 5% CO2 /95% air humidifedd atmosphere. Control cells were treated similarly but were not exposed to the virus. At various time points on days 5 to 7 of culture, the total viable cells were counted in a hemocytometer by the trypan blue dye exclusion method.

[5] = water or body fluids; listed as ddA; cited from earlier work
HTLV-III/LAV [6] = test: HTLV-III/LAV cytopathic effect assay using ATH8 cells (protective effect); format: cell-based, HTLV-IIIB; details: for protection (in words): 200 micromolar; for doses required for protection (in words): relative to other dideoxy nucleosides / ddC 1; for protective / anti-HTLV-III activity (in words): in vitro
Procedure: ^a The percentage of protective effect of a nucleoside was determined
by the following formula:
100 × [(number of viable cells exposed to HTLVIII and cultured in
the presence of the nucleoside) - (number of viable cells exposed to
HTLVII I cultured in the absence of the nucleoside)]/[(number of viable
cells cultured alone) - (number of viable cells exposed to HTLVIII in the
absence of the nucleoside)].
as §4

ATH8 cells = test: Cytotoxicity to ATH8 cells cultured with the nucleoside (trypan blue viable cell count); format: cell-based; details: in vitro
Procedure: as §1, §2, §3, §4

Basicity and protonation = format: physicochemical; details: relative to 2',3'-dideoxycytidine
mouse fibroblasts = details: Cancer Research, 1975, 35, 1547-1554; cited from earlier work
reverse transcriptase = details: cited from earlier work
[7] = 5 μM, ATH8 cells, read-out: Cytotoxicity (%)
[8] = 10 μM, ATH8 cells, read-out: Cytotoxicity (%)
[9] = 50 μM, ATH8 cells, read-out: Cytotoxicity (%)
[10] = 200 μM, ATH8 cells, read-out: Cytotoxicity (%)
[11] = 0.5 μM, ATH8 cells, read-out: Cytotoxicity (%)

Cc1cn([C@H]2C[C@H](N=[N+]=[N-])[C@@H](CO)O2)c(=O)[nH]c1=O [AZT, 3-azido-3'-deoxythymidine]
activity in test systems (in words) (HTLV-III/LAV [1]): a compound with activity in test systems

Nc1ccn([C@H]2CC[C@@H](CO)O2)c(=O)n1 [Compound 1, 2',3'-dideoxycytidine]
protection against the cytopathic effects of HTLV-III/LAV (in words) (HTLV-III/LAV [2]): most potent member of the group on the basis of molarity
protection against the cytopathic effects of HTLV-III/LAV (in words) (HTLV-III/LAV [2]; listed as ddC): potent protective agent; also recorded: very effective
cytotoxicity (in words) (T4^+ lymphocytes): non-cytotoxic
penetration of the blood-brain barrier / entry into the central nervous system [3]: enter the central nervous system, very poorly
cytotoxicity at 0.05 µM ([4]; ath8 cells): 0%
cytotoxicity at 0.5 µM ([4]; ath8 cells): 0%
cytotoxicity at 5 µM ([4]; ath8 cells): 0%
cytotoxicity at 50 µM ([4]; ath8 cells): 30%

Nc1ncnc2c1ncn2[C@H]1CC[C@@H](CO)O1 [Compound 2]
protection against the cytopathic effects of HTLV-III/LAV (in words) (HTLV-III/LAV [2]): very effective
cytotoxicity at 1 µM ([4]; ATH8 cells): 0%
cytotoxicity at 5 µM [4, 7]: 6%
cytotoxicity at 10 µM [4, 8]: 0%
cytotoxicity at 50 µM [4, 9]: 0%
cytotoxicity at 100 µM ([4]; ATH8 cells): 0%
cytotoxicity at 200 µM [4, 10]: 0%
solubility (in words) [5]: relatively insoluble; also recorded: not very soluble in water or body fluids

Cc1cn([C@H]2CC[C@@H](CO)O2)c(=O)[nH]c1=O [Compound 3, dideoxythymidine]
cytotoxicity at 10 µM [4, 8]: 8%
cytotoxicity at 50 µM [4, 9]: 8%
cytotoxicity at 100 µM ([4]; ATH8 cells): 13%
cytotoxicity at 200 µM [4, 10]: 6%
cytotoxicity at 500 µM ([4]; 500 μM, ATH8 cells): 30%
cytotoxicity at 1000 µM ([4]; 1000 μM, ATH8 cells): 40%
cytotoxicity at 2000 µM ([4]; 2000 μM, ATH8 cells): 53%
protection (in words) (HTLV-III/LAV [6]): considerable protection
inhibition at 10 µM (HTLV-III/LAV [6]; Human immunodeficiency virus 1, ATH-8, 10 μM, ATH8 cells, days 5 to 7): 3%
doses required for protection (in words) (HTLV-III/LAV [6]): unusually high doses

Nc1ncn([C@H]2CC[C@@H](CO)O2)c(=O)n1 [Compound 10, 2',3'-Dideoxy-5-azacytidine]
cytotoxicity (in words) (ATH8 cells): clearly more cytotoxic than ddC
cytotoxicity at 1 µM ([4]; ATH8 cells): 13%
cytotoxicity at 10 µM [4, 8]: 19%
cytotoxicity at 50 µM [4, 9]: 62%
anti-HTLV-III activity (in words) (HTLV-III/LAV [6]; 10 micromolar): significant anti-HTLV-III activity

Cc1cn([C@H]2CC[C@@H](CO)O2)c(=O)nc1N [Compound 15, 2',3'-Dideoxy-5-methylcytidine]
MCC ([4]; ath8 cells, read-out: concentration at which toxicity began to show): 100 µM
cytotoxicity at 2 µM ([4]; ATH8 cells): 23%
cytotoxicity at 10 µM [4, 8]: 27%
cytotoxicity at 100 µM ([4]; ATH8 cells): 44%
protective / anti-HTLV-III activity (in words) (HTLV-III/LAV [6]): devoid of protective effects

Cc1cn([C@H]2C[C@H](O)[C@@H](CO)O2)c(=O)nc1N [Compound 16, 5-methyl-2'-deoxycytidine]
cytotoxicity (in words) (ATH8 cells): neither protective nor cytotoxic
protective / anti-HTLV-III activity (in words) (HTLV-III/LAV [6]): neither protective nor cytotoxic

Nc1nc(=O)n([C@H]2CC[C@@H](CO)O2)cc1Br [Compound 17, 2',3'-Dideoxy-5-bromocytidine]
cytotoxicity (in words) (ATH8 cells): neither protective nor cytotoxic
cytotoxicity at 1 µM ([4]; ATH8 cells): 14%
cytotoxicity at 10 µM [4, 8]: 14%
cytotoxicity at 30 µM ([4]; 30 μM, ATH8 cells): 2%
cytotoxicity at 200 µM [4, 10]: 0%
protective / anti-HTLV-III activity (in words) (HTLV-III/LAV [6]): neither protective nor cytotoxic

Nc1nc(=O)n([C@H]2CC[C@@H](CO)O2)cc1F [Compound 22, 2',3'-Dideoxy-5-fluorocytidine]
basicity (Basicity and protonation): less basic than the parent compound
protonation (Basicity and protonation): less protonated than the parent compound
penetration of the blood-brain barrier / entry into the central nervous system [3]: penetrate the blood-brain barrier
cytotoxicity at 0.05 µM ([4]; 0.05 μM, ATH8 cells, read-out: Cytotoxicity (%)): 5%
cytotoxicity at 0.5 µM [4, 11]: 0%
cytotoxicity at 5 µM [4, 7]: 0%
cytotoxicity at 50 µM [4, 9]: 9%
inhibition at 0.05 µM (HTLV-III/LAV [6]; Human immunodeficiency virus 1, ATH-8, 0.05 μM, ATH8 cells, days 5 to 7): 5%
protective / anti-HTLV-III activity (in words) (HTLV-III/LAV [6]): as protective of HTLV-III infected cells as the lead compound 1

Nc1ccn([C@H]2CC[C@@H](COP(=O)(O)O)O2)c(=O)n1 [Compound 24]
cytotoxicity at 0.5 µM [4, 11]: 0%
cytotoxicity at 2 µM ([4]; ATH8 cells): 7%
cytotoxicity at 10 µM [4, 8]: 0%
doses required for protection (in words) (HTLV-III/LAV [6]): significant protection was beginning to be observed at doses approximately ten times higher than were required for activity with ddC 1

Nc1ncnc2c1ncn2[C@H]1CC[C@@H](COP(=O)(O)O)O1 [Compound 25, 2',3'-dideoxyadenosine-5'-phosphate]
cytotoxicity in mouse fibroblasts (in words) (mouse fibroblasts): cytotoxic consequences
entry into mouse fibroblasts (mouse fibroblasts): appeared to enter mouse fibroblasts intact
cytotoxicity at 1 µM ([4]; ATH8 cells): 2%
cytotoxicity at 5 µM [4, 7]: 10%
cytotoxicity at 10 µM [4, 8]: 6%
cytotoxicity at 50 µM [4, 9]: 4%
cytotoxicity at 100 µM ([4]; ATH8 cells): 0%
cytotoxicity at 200 µM [4, 10]: 5%
inhibition at 1 µM (HTLV-III/LAV [6]; Human immunodeficiency virus 1, ATH-8, 1 μM, ATH8 cells, days 5 to 7): 25%
protective / anti-HTLV-III activity (in words) (HTLV-III/LAV [6]): just as active as the nucleoside 2, over a wide concentration range
potency of ddAMP relative to ddA (in words) (HTLV-III/LAV [6]; low concentrations): not more potent at low concentrations

Cc1cn([C@H]2CC[C@@H](COP(=O)(O)O)O2)c(=O)[nH]c1=O [Compound 26]
cytotoxicity at 10 µM ([4]; ath8 cells): 9%
cytotoxicity at 50 µM ([4]; ath8 cells): 9%
cytotoxicity at 200 µM ([4]; ath8 cells): 10%
protection (in words) (HTLV-III/LAV [6]): essentially inactive

O=C(O)P(=O)(O)O [foscarnet]
inhibition of reverse transcriptase (in words) (reverse transcriptase): inhibit this enzyme

NC(=O)c1ncn([C@@H]2O[C@H](CO)[C@@H](O)[C@H]2O)n1 [ribavirin]
inhibition of reverse transcriptase (in words) (reverse transcriptase): inhibit this enzyme

Cc1ccc(C(=O)Nc2ccc(S(=O)(=O)O)c3cc(S(=O)(=O)O)cc(S(=O)(=O)O)c23)cc1NC(=O)c1cccc(NC(=O)Nc2cccc(C(=O)Nc3cc(C(=O)Nc4ccc(S(=O)(=O)O)c5cc(S(=O)(=O)O)cc(S(=O)(=O)O)c45)ccc3C)c2)c1 [suramin]
inhibition of reverse transcriptase (in words) (reverse transcriptase): inhibit this enzyme
